Reference: patent US12662489B2 (Sitryx Therapeutics Limited, priority 2023, dated 2026)

Tests used:
[1] = target: T1, MTHFD2 recombinant human enzyme (Homo sapiens, UniProt P13995); test: MTHFD2 inhibition assay (NAD(P)H-Glo luminescence)
T1 sequence (P13995 36-350): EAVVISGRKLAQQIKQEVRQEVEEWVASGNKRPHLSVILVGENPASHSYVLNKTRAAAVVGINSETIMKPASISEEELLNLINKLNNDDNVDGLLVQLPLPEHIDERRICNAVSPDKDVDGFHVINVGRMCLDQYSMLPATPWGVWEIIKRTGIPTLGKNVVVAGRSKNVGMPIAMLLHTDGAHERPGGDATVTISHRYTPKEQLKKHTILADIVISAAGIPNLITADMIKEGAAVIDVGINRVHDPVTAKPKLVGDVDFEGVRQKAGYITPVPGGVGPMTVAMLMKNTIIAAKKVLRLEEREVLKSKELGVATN

[2] = target: T2, MTHFD1 recombinant human enzyme (Homo sapiens, UniProt P11586); test: MTHFD1 inhibition assay (NAD(P)H-Glo luminescence); settings: MTHFD1 IC50, recombinant human enzyme 200 nM, NADP, band
T2 sequence (P11586 2-291 limits assumed): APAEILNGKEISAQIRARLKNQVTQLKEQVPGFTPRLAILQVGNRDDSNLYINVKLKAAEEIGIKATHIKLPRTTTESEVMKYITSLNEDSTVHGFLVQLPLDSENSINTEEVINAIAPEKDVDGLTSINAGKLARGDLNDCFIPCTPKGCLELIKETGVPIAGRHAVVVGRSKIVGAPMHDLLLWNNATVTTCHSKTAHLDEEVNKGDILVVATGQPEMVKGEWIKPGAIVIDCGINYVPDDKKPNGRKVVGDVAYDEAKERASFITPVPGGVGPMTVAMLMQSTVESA

[3] = selectivity of MTHFD2 inhibition over MTHFD1, band

Row | SMILES | IC50 [1] [nM] | MTHFD1/MTHFD2 IC50 ratio [1, 3] | IC50 [2] [nM] | MTHFD1/MTHFD2 IC50 ratio ([1]; mean value after increased number of repeats, band)
1 | COC[C@H]1CN(c2cc(C)c3c4c(c(=O)oc3c2C)CN(C(=O)c2ccc(C(=O)NS(=O)(=O)C3(C)CC3)c(O[C@H]3C[C@@H]5C[C@@H]5C3)c2F)CC4)CCN1C [Example 68, 2-(((1R,3s,5S)-bicyclo[3.1.0]hexan-3-yl)oxy)-3-fluoro-4-(8-((R)-3-(methoxymethyl)-4-methylpiperazin-1-yl)-7,10-dimethyl-5-oxo-1,3,4,5-tetrahydro-2H-chromeno[3,4-c]pyridine-3-carbonyl)-N-((1-methylcyclopropyl)sulfonyl)benzamide] | 1 to 10 | F (<3) | 1 to 10 | –
2 | COC[C@H]1CN(c2cc(C)c3c4c(c(=O)oc3c2C)CN(C(=O)c2ccc(C(=O)NS(=O)(=O)N(C)C)c(N3CCCC3)c2F)CC4)CCN1C [Example 70, (R)-N-(N,N-dimethylsulfamoyl)-3-fluoro-4-(8-(3-(methoxymethyl)-4-methylpiperazin-1-yl)-7,10-dimethyl-5-oxo-1,3,4,5-tetrahydro-2H-chromeno[3,4-c]pyridine-3-carbonyl)-2-(pyrrolidin-1-yl)benzamide] | 1 to 10 | G (^ 3 to 9.0) | 10 to 100 | –
3 | COC[C@H]1CN(c2cc(C)c3c4c(c(=O)oc3c2C)CN(C(=O)c2ccc(C(=O)NS(=O)(=O)C3(C)CC3)c(N3CC5CC5C3)c2F)CC4)CCN1C (stereo partly drawn) [Example 71, 2-(3-azabicyclo[3.1.0]hexan-3-yl)-3-fluoro-4-(8-((R)-3-(methoxymethyl)-4-methylpiperazin-1-yl)-7,10-dimethyl-5-oxo-1,3,4,5-tetrahydro-2H-chromeno[3,4-c]pyridine-3-carbonyl)-N-((1-methylcyclopropyl)sulfonyl)benzamide] | 1 to 10 | – | 10 to 100 | –
4 | COC[C@H]1CN(c2cc(C)c3c4c(c(=O)oc3c2C)CN(C(=O)c2ccc(C(=O)NS(=O)(=O)N(C)C)c(N3CC5CC5C3)c2F)CC4)CCN1C (stereo partly drawn) [Example 72, 2-(3-azabicyclo[3.1.0]hexan-3-yl)-N-(N,N-dimethylsulfamoyl)-3-fluoro-4-(8-((R)-3-(methoxymethyl)-4-methylpiperazin-1-yl)-7,10-dimethyl-5-oxo-1,3,4,5-tetrahydro-2H-chromeno[3,4-c]pyridine-3-carbonyl)benzamide] | 1 to 10 | – | 1 to 10 | –
5 | COC[C@H]1CN(c2cc(C)c3c4c(c(=O)oc3c2C)CN(C(=O)c2ccc(C(=O)NS(=O)(=O)C3(C)CC3)c(N3C5CCC3CC5)c2F)CC4)CCN1C [Example 73, (R)-2-(7-azabicyclo[2.2.1]heptan-7-yl)-3-fluoro-4-(8-(3-(methoxymethyl)-4-methylpiperazin-1-yl)-7,10-dimethyl-5-oxo-1,3,4,5-tetrahydro-2H-chromeno[3,4-c]pyridine-3-carbonyl)-N-((1-methylcyclopropyl)sulfonyl)benzamide] | 1 to 10 | – | 1 to 10 | –
6 | COC[C@H]1CN(c2cc(C)c3c4c(c(=O)oc3c2C)CN(C(=O)c2ccc(C(=O)NS(=O)(=O)N(C)C)c(N3C5CCC3CC5)c2F)CC4)CCN1C [Example 74, (R)-2-(7-azabicyclo[2.2.1]heptan-7-yl)-N-(N,N-dimethylsulfamoyl)-3-fluoro-4-(8-(3-(methoxymethyl)-4-methylpiperazin-1-yl)-7,10-dimethyl-5-oxo-1,3,4,5-tetrahydro-2H-chromeno[3,4-c]pyridine-3-carbonyl)benzamide] | 1 to 10 | F (<3) | 1 to 10 | –
7 | COC[C@H]1CN(c2cc(C)c3c4c(c(=O)oc3c2C)CN(C(=O)c2ccc(C(=O)NS(=O)(=O)C3(C)CC3)c(N3CCCC(F)(F)C3)c2)CC4)CCN1C [Example 75, (R)-2-(3,3-difluoropiperidin-1-yl)-4-(8-(3-(methoxymethyl)-4-methylpiperazin-1-yl)-7,10-dimethyl-5-oxo-1,3,4,5-tetrahydro-2H-chromeno[3,4-c]pyridine-3-carbonyl)-N-((1-methylcyclopropyl)sulfonyl)benzamide] | 1 to 10 | G (^ 3 to 9.0) | 1 to 10 | –
8 | COC[C@H]1CN(c2cc(C)c3c4c(c(=O)oc3c2C)CN(C(=O)c2ccc(C(=O)NS(=O)(=O)C3(C)CC3)c(N3CCCC(F)(F)C3)c2F)CC4)CCN1C [Example 76, (R)-2-(3,3-difluoropiperidin-1-yl)-3-fluoro-4-(8-(3-(methoxymethyl)-4-methylpiperazin-1-yl)-7,10-dimethyl-5-oxo-1,3,4,5-tetrahydro-2H-chromeno[3,4-c]pyridine-3-carbonyl)-N-((1-methylcyclopropyl)sulfonyl)benzamide] | 1 to 10 | – | 10 to 100 | –
9 | COC[C@H]1CN(c2cc(C)c3c4c(c(=O)oc3c2C)CN(C(=O)c2ccc(C(=O)NS(=O)(=O)N(C)C)c(N3CCCC(F)(F)C3)c2)CC4)CCN1C [Example 77, (R)-2-(3,3-difluoropiperidin-1-yl)-N-(N,N-dimethylsulfamoyl)-4-(8-(3-(methoxymethyl)-4-methylpiperazin-1-yl)-7,10-dimethyl-5-oxo-1,3,4,5-tetrahydro-2H-chromeno[3,4-c]pyridine-3-carbonyl)benzamide] | 1 to 10 | F (<3) | 1 to 10 | –
10 | COC[C@H]1CN(c2cc(C)c3c4c(c(=O)oc3c2C)CN(C(=O)c2ccc(C(=O)NS(=O)(=O)N(C)C)c(N3CCCC(F)(F)C3)c2F)CC4)CCN1C [Example 78, (R)-2-(3,3-difluoropiperidin-1-yl)-N-(N,N-dimethylsulfamoyl)-3-fluoro-4-(8-(3-(methoxymethyl)-4-methylpiperazin-1-yl)-7,10-dimethyl-5-oxo-1,3,4,5-tetrahydro-2H-chromeno[3,4-c]pyridine-3-carbonyl)benzamide] | 1 to 10 | – | 1 to 10 | –
11 | COC[C@H]1CN(c2cc(C)c3c4c(c(=O)oc3c2C)CN(C(=O)c2ccc(C(=O)NS(=O)(=O)C3(C)CC3)c(N(C)C)c2)CC4)CCN1C [Example 79, (R)-2-(dimethylamino)-4-(8-(3-(methoxymethyl)-4-methylpiperazin-1-yl)-7,10-dimethyl-5-oxo-1,3,4,5-tetrahydro-2H-chromeno[3,4-c]pyridine-3-carbonyl)-N-((1-methylcyclopropyl)sulfonyl)benzamide] | 1 to 10 | H (>9.0 to 30) | 10 to 100 | –
12 | COC[C@H]1CN(c2ccc3c4c(c(=O)oc3c2C)CN(C(=O)c2cc(Cl)c(C(=O)NS(=O)(=O)N(C)C)c(N3C5CCC3CC5)c2)CC4)CCN1C [Example 80, (R)-2-(7-azabicyclo[2.2.1]heptan-7-yl)-6-chloro-N-(N,N-dimethylsulfamoyl)-4-(8-(3-(methoxymethyl)-4-methylpiperazin-1-yl)-7-methyl-5-oxo-1,3,4,5-tetrahydro-2H-chromeno[3,4-c]pyridine-3-carbonyl)benzamide] | 10 to 100 | G (^ 3 to 9.0) | 10 to 100 | –
13 | COC[C@H]1CN(c2cc(C)c3c4c(c(=O)oc3c2C)CN(C(=O)c2ccc(C(=O)NS(=O)(=O)C3(C)CC3)c(N3CCC(F)(F)C3)c2)CC4)CCN1C [Example 81, (R)-2-(3,3-difluoropyrrolidin-1-yl)-4-(8-(3-(methoxymethyl)-4-methylpiperazin-1-yl)-7,10-dimethyl-5-oxo-1,3,4,5-tetrahydro-2H-chromeno[3,4-c]pyridine-3-carbonyl)-N-((1-methylcyclopropyl)sulfonyl)benzamide] | 1 to 10 | – | 10 to 100 | –
14 | COC[C@H]1CN(c2cc(C)c3c4c(c(=O)oc3c2C)CN(C(=O)c2ccc(C(=O)NS(=O)(=O)N(C)C)c(N3CCC(F)(F)C3)c2)CC4)CCN1C [Example 82, (R)-2-(3,3-difluoropyrrolidin-1-yl)-N-(N,N-dimethylsulfamoyl)-4-(8-(3-(methoxymethyl)-4-methylpiperazin-1-yl)-7,10-dimethyl-5-oxo-1,3,4,5-tetrahydro-2H-chromeno[3,4-c]pyridine-3-carbonyl)benzamide] | 1 to 10 | – | 10 to 100 | –
15 | COC[C@H]1CN(c2cc(C)c3c4c(c(=O)oc3c2C)CN(C(=O)c2ccc(C(=O)NS(=O)(=O)C3(C)CC3)c(N(C)C3CC3)c2)CC4)CCN1C [Example 83, (R)-2-(cyclopropyl(methyl)amino)-4-(8-(3-(methoxymethyl)-4-methylpiperazin-1-yl)-7,10-dimethyl-5-oxo-1,3,4,5-tetrahydro-2H-chromeno[3,4-c]pyridine-3-carbonyl)-N-((1-methylcyclopropyl)sulfonyl)benzamide] | 1 to 10 | G (^ 3 to 9.0) | 10 to 100 | H* (>9.0 to 30)
16 | COC[C@H]1CN(c2cc(C)c3c4c(c(=O)oc3c2C)CN(C(=O)c2ccc(C(=O)NS(=O)(=O)N(C)C)c(N(C)C3CC3)c2)CC4)CCN1C [Example 84, (R)-2-(cyclopropyl(methyl)amino)-N-(N,N-dimethylsulfamoyl)-4-(8-(3-(methoxymethyl)-4-methylpiperazin-1-yl)-7,10-dimethyl-5-oxo-1,3,4,5-tetrahydro-2H-chromeno[3,4-c]pyridine-3-carbonyl)benzamide] | 1 to 10 | G (^ 3 to 9.0) | 10 to 100 | –
